Entries after “also recorded” stand apart in the source; their conditions may differ.
What was measured:
α-glucosidase [1] = target: T1, α-glucosidase (Saccharomyces cerevisiae, UniProt P53341); assay: In vitro α-glucosidase inhibition assay; type: biochemical; conditions: for α-Glucosidase inhibitory activity described in words: SAR discussion
α-glucosidase [2] = target: T1, α-glucosidase; assay: Enzyme kinetic studies; type: biochemical

T1 sequence (P53341 whole entry): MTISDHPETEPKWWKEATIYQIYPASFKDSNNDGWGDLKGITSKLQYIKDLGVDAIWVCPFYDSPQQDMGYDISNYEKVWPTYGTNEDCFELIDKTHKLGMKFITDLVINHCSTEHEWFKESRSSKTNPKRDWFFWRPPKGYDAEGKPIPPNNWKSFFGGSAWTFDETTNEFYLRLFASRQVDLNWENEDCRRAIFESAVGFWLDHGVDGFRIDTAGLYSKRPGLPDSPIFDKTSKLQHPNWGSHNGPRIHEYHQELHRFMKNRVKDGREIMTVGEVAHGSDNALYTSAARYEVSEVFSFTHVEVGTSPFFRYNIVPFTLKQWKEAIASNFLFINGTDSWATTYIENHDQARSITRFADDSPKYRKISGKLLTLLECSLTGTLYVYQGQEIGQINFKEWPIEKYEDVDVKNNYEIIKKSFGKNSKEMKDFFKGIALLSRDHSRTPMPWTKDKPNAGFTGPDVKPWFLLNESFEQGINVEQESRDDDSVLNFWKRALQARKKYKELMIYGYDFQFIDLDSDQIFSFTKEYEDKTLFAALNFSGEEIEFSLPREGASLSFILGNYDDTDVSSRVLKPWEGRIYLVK

α-Glucosidase inhibitory activity described in words (α-glucosidase [1])	Ki (α-glucosidase [2]) [µM]	Fold improvement in activity compared to acarbose (α-glucosidase [1]; versus acarbose as positive control) [fold]	SMILES	Type of inhibition (Lineweaver-Burk plot) (α-glucosidase [2]; Km increased, Vmax unchanged with increasing inhibitor concentration)
poor activity			COc1ccc(CNC(=O)CN2CCN(c3nc4ccccc4cc3/C=N/NC(N)=S)CC2)cc1 [Compound 7n, (E)-2-(4-(3-((2-carbamothioylhydrazono)methyl)quinolin-2-yl)piperazin-1-yl)-N-(4-methoxybenzyl)acetamide]	
	32	15	COc1ccc(OC)c(NC(=O)CN2CCN(c3nc4ccccc4cc3/C=N/NC(N)=S)CC2)c1 [Compound 7j, (E)-2-(4-(3-((2-carbamothioylhydrazono)methyl)quinolin-2-yl)piperazin-1-yl)-N-(2,5-dimethoxyphenyl)acetamide]	competitive inhibitor; also recorded: competitive inhibition
diminished activity			Cc1ccccc1NC(=O)CN1CCN(c2nc3ccccc3cc2/C=N/NC(N)=S)CC1 [Compound 7h, (E)-2-(4-(3-((2-carbamothioylhydrazono)methyl)quinolin-2-yl)piperazin-1-yl)-N-(o-tolyl)acetamide]	
